# Source: patent US4587233A, “Use of Arg-Phe-amide derivatives” (Board of Trustees of the Leland Stanford Junior University, priority 1983, dated 1986)
# Where a name gives a salt, the structure may show the parent alone.
# Assays:
# [1] = tested on: Blood Pressure of Anesthetized Rats; experiment: Blood pressure bioassay in urethane-anesthetized rats, peptides injected intravenously; format: in vivo, male Sprague-Dawley rats; set-up: key to Duration of blood pressure effect: +: short-lasting blood pressure elevation at all doses; ++: short-lasting blood pressure elevation at low doses; +++: long-lasting elevation at low doses; conditions: i.v.; for Maximal increase in blood pressure mm Hg diastolic / Maximal increase in blood pressure mm Hg systolic: over the dose-range tested (nmol/kg)
# Procedure: Bioassays were conducted on male Sprague-Dawley rats, weighing 250-450 g, and anesthetized by an intraperitoneal injection of a 25 percent urethane solution (1.25 g/kg). The left femoral artery was cannulated with PE 50 polyethylene tubing for monitoring of blood pressure with a pressure transducer RP-1500 (Narco Biosystems). Injections of peptides or drugs were made via a PE 10 tubing into the left femoral vein. Respiration was measured by an impedance method by which the respiratory movements of the chest are registered. The method gives indirect information on respiration amplitude. Heart and respiration frequency were obtained by using biotachometer couplers which measure mean frequencies. Body temperature was measured in the rectum with a thermistor (Yellow Springs Instruments) and maintained between 36.5° and 37.5° C. Peptides or drugs were dissolved in sterile H2 O and the volumes injected intravenously were usually 0.1 ml and never exceeded 0.2 ml.
# [2] = tested on: pressor activity of FMRF-NH2 in urethane-anesthetized rats; experiment: Pressor activity of FMRF-NH2 after pretreatment with vasodepressor drugs and pharmacologic antagonists; format: in vivo; conditions: for Attenuation of the FMRFamide pressor effect: FMRF-NH2 challenge 16, 128, 512 nmol/kg i.v. after pretreatment with drugs interacting with the α-adrenergic system; for Effect of drug pretreatment on pressor activity of FMRF-NH2: FMRF-NH2 challenge 16, 128, 512 nmol/kg i.v. 5-10 minutes after drug pretreatment; for Effect of lower doses of drug on FMRFamide pressor effect: effective at blocking norepinephrine hydrochloride 3 to 15 μg/kg
# [3] = tested on: pressor effects of angiotensin II, Arg^8 -vasopressin, norepinephrine hydrochloride; experiment: Effectiveness of the antagonists against their respective pressor agonists; format: in vivo, rats; conditions: for Blocking of the pressor effects of norepinephrine hydrochloride: lower doses of drug, norepinephrine hydrochloride 3 to 15 μg/kg
molecule,measurement,setting,value
gamma 1-melanotropic stimulating hormone [q MSH],Duration of blood pressure effect,[1],+++
same,"Pressor activity (blood pressure elevation), in words",[1],exhibits pressor activity
same,Maximal increase in blood pressure mm Hg diastolic,[1],70 mm Hg
same,Maximal increase in blood pressure mm Hg systolic,[1],90 mm Hg
Clc1cccc(Cl)c1N=C1NCCN1 [clonidine hydrochloride],Attenuation of the FMRFamide pressor effect,[2],30-75%
nitroprusside,Effect of drug pretreatment on pressor activity of FMRF-NH2,[2],did not modify
CN1C[C@H](C(=O)N[C@]2(C)O[C@@]3(O)[C@@H]4CCCN4C(=O)[C@H](Cc4ccccc4)N3C2=O)C[C@@H]2c3cccc4[nH]cc(c34)C[C@H]21 [dihydroergotamine mesylate],Attenuation of the FMRFamide pressor effect,[2],30-75%
"N=C(N)NCCC[C@H](N)C(=O)O [R--OH, arginine]","Pressor activity (blood pressure elevation), in words",[1],Neither arginine nor phenylalanine nor phenylalanine-amide were active
same,Maximal increase in blood pressure mm Hg diastolic,[1],0 mm Hg
same,Maximal increase in blood pressure mm Hg systolic,[1],0 mm Hg
"(1-(β-mercapto-β,β-cyclopentamethylene propionic acid), 2-(0-methyl)tyrosine)Arg^8 -Vasopressin",Effect of drug pretreatment on pressor activity of FMRF-NH2,[2],not blocked
same,Antagonism of Arg^8 -vasopressin,[3]; agonist Arg^8 -vasopressin 1 μg/kg,effective antagonists
"N[C@@H](Cc1ccccc1)C(=O)O [F-- OH, phenylalanine]","Pressor activity (blood pressure elevation), in words",[1],Neither arginine nor phenylalanine nor phenylalanine-amide were active
same,Maximal increase in blood pressure mm Hg diastolic,[1],0 mm Hg
same,Maximal increase in blood pressure mm Hg systolic,[1],0 mm Hg
c1ccc(CC2=NCCN2)cc1 [tolazoline hydrochloride],Attenuation of the FMRFamide pressor effect,[2],30-75%
same,Effect of lower doses of drug on FMRFamide pressor effect,[2],did not affect
same,Blocking of the pressor effects of norepinephrine hydrochloride,[3],effective at blocking
CNCC(=O)N[C@@H](CCCN=C(N)N)C(=O)N[C@H](C(=O)N[C@@H](Cc1ccc(O)cc1)C(=O)N[C@H](C(=O)N[C@@H](Cc1cnc[nH]1)C(=O)N1CCC[C@H]1C(=O)N[C@@H](C)C(=O)O)C(C)C)C(C)C [saralasin],Effect of drug pretreatment on pressor activity of FMRF-NH2,[2],not blocked
same,Antagonism of angiotensin II,[3]; agonist angiotensin II 2 μg/kg,effective antagonists
C[N+](C)(C)CCCCCC[N+](C)(C)C [hexamethonium bromide],Effect of drug pretreatment on pressor activity of FMRF-NH2,[2],not blocked
"NC(=O)[C@@H](N)Cc1ccccc1 [F--NH2, phenylalanine-amide]","Pressor activity (blood pressure elevation), in words",[1],Neither arginine nor phenylalanine nor phenylalanine-amide were active
same,Maximal increase in blood pressure mm Hg diastolic,[1],0 mm Hg
same,Maximal increase in blood pressure mm Hg systolic,[1],0 mm Hg
CN1CCC(=C2c3ccccc3C=Cc3ccccc32)CC1 [cyproheptadine],Effect of drug pretreatment on pressor activity of FMRF-NH2,[2],did not modify
C=CCN1CC[C@]23c4c5ccc(O)c4O[C@H]2C(=O)CC[C@@]3(O)[C@H]1C5.Cl [nalozone hydrochloride],Effect of drug pretreatment on pressor activity of FMRF-NH2,[2],did not modify
CC(COc1ccccc1)N(CCCl)Cc1ccccc1 (stereo not drawn) [Phenoxybenzamine hydrochloride],Effect of drug pretreatment on pressor activity of FMRF-NH2,[2],no effect
Cc1ccc(N(CC2=NCCN2)c2cccc(O)c2)cc1 [phentolamine hydrochloride],Attenuation of the FMRFamide pressor effect,[2],30-75%
same,Effect of lower doses of drug on FMRFamide pressor effect,[2],did not affect
same,Blocking of the pressor effects of norepinephrine hydrochloride,[3],effective at blocking
COC(=O)[C@H]1[C@H]2C[C@@H]3c4[nH]c5cc(OC)ccc5c4CCN3C[C@H]2C[C@@H](OC(=O)c2cc(OC)c(OC)c(OC)c2)[C@@H]1OC [reserpine],Effect of drug pretreatment on pressor activity of FMRF-NH2,[2],did not modify
CN1[C@@H]2CC[C@H]1C[C@@H](OC(=O)C(CO)c1ccccc1)C2 (stereo partly drawn) [atropine],Effect of drug pretreatment on pressor activity of FMRF-NH2,[2],did not modify
CCCO [propanol hydrochloride],Effect of drug pretreatment on pressor activity of FMRF-NH2,[2],not blocked
